Source: patent US20230091047A1 (priority 2019, published 2023)

Assays:
[1] = system: HBV (HepG2.117 cell line, inducibly HBV producing); assay: Anti-HBV activity: intracellular HBV DNA by real-time PCR in HepG2.117 cells after 3 days of treatment; type: cell-based, hepatitis B virus; conditions: Hepatitis B virus, HepG2.117, 72 h, HepG2.117 cells, intracellular HBV DNA by real-time PCR, 3 days of treatment, mean value; read-out: EC50 (μM, mean value)
Summary of the method: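 Read-out is intracellular HBV DNA, measured by real-time PCR using HBV-specific primers and probe. Cells were stable, inducible HBV-producing HepG2.117 (Tet-off). Serially diluted compound was applied for 3 days after replication was induced.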

in vitro = type: cell-based; conditions: human, HepG2 or HepG2.117 cells, ATPlite, 3-days incubation (not marked with *), mean value
Summary of the method: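 Luminescent ATP quantitation served as the viability endpoint following a 3- or 4-day incubation with test compounds.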

| SMILES | EC50 [1] [µM] | CC50 at 3 days (in vitro) [µM] |
| --- | --- | --- |
| CNC(=O)c1ccc(-n2c(NC(C)C)nc3c(c2=O)C[C@@H](C)N(C(=O)c2cc(F)c(Br)cc2Cl)C3)cc1 [Compound C592] | 0.7 | > 50 |
| CNC(=O)c1ccc(-n2c(NC(C)C)nc3c(c2=O)C[C@@H](C)N(C(=O)c2ccc(Cl)cc2OC)C3)cc1 [Compound C593] | > 25 | > 50 |
| CNC(=O)c1ccc(-n2c(NC(C)C)nc3c(c2=O)C[C@@H](C)N(C(=O)c2cc4ccc(Cl)c(F)c4[nH]2)C3)cc1 [Compound C594] | 0.04 | 26.1 |
| CNC(=O)c1ccc(-n2c(N(C)Cc3nc(C)n[nH]3)nc3c(c2=O)C[C@@H](C)N(C(=O)c2ccc(Cl)c(Cl)c2)C3)cc1 [Compound C595] | > 25 | > 50 |
| CNC(=O)c1ccc(-n2c(NC(C)c3ccc(C(F)(F)F)s3)nc3c(c2=O)C[C@@H](C)N(C(=O)c2ccc(Cl)c(Cl)c2)C3)cc1 (stereo partly shown) [Compound C596] | 0.4 | 25.5 |
| CNC(=O)c1ccc(-n2c(NCc3cccc(-c4nnc[nH]4)c3)nc3c(c2=O)C[C@@H](C)N(C(=O)c2ccc(Cl)c(Cl)c2)C3)cc1 [Compound C597] | 9.49 | > 50 |
| CNC(=O)c1ccc(-n2c(NCc3nc(C(F)(F)F)n[nH]3)nc3c(c2=O)C[C@@H](C)N(C(=O)c2ccc(Cl)c(Cl)c2)C3)cc1 [Compound C598] | > 25 | > 50 |
| CNC(=O)c1ccc(-n2c(NCCCc3nc(=O)[nH][nH]3)nc3c(c2=O)C[C@@H](C)N(C(=O)c2ccc(Cl)c(Cl)c2)C3)cc1 [Compound C599] | > 25 | > 50 |
| CNC(=O)c1ccc(-n2c(NCc3n[nH]c(=O)[nH]3)nc3c(c2=O)C[C@@H](C)N(C(=O)c2ccc(Cl)c(Cl)c2)C3)cc1 [Compound C600] | > 25 | > 50 |
| CNC(=O)c1ccc(-n2c(NCC(n3cncn3)C(F)(F)F)nc3c(c2=O)C[C@@H](C)N(C(=O)c2ccc(Cl)c(Cl)c2)C3)cc1 (stereo partly shown) [Compound C601] | 7.71 | > 50 |
| CNC(=O)c1ccc(-n2c(NC(C)C)nc3c(c2=O)C[C@@H](C)N(C(=O)c2cc(Br)cc(C(F)(F)F)c2)C3)cc1 [Compound C602] | 0.38 | > 25 |
| CNC(=O)c1ccc(-n2c(N(C)Cc3cnn(-c4ccccc4)n3)nc3c(c2=O)C[C@@H](C)N(C(=O)c2ccc(Cl)c(Cl)c2)C3)cc1 [Compound C603] | 0.21 | > 50 |
| CNC(=O)c1ccc(-n2c(NC(C)C)nc3c(c2=O)C[C@@H](C)N(C(=O)c2ccc4c(c2)C=CS4(=O)=O)C3)cc1 [Compound C604] | > 25 | > 50 |
| CCN(Cc1ccc2c(c1)OCO2)c1nc2c(c(=O)n1-c1ccc(C(=O)NC)cc1)C[C@@H](C)N(C(=O)c1ccc(Cl)c(Cl)c1)C2 [Compound C605] | 0.15 | > 50 |
| CNC(=O)c1cc(-n2c(N[C@@H](C)c3ccc(OC(F)(F)F)cc3)nc3c(c2=O)C[C@@H](C)N(C(=O)c2ccc(Cl)c(Cl)c2)C3)[nH]n1 [Compound C607] | 0.14 | 11.4 |
| CNC(=O)c1ccc(-n2c(N[C@@H](C)c3ccc(C(F)F)cc3)nc3c(c2=O)C[C@@H](C)N(C(=O)c2ccc(Cl)c(Cl)c2)C3)cc1 [Compound C609] | 0.08 | 18.7 |
| CC(C)Nc1nc2c(c(=O)n1-c1ccc(-c3nnc[nH]3)cc1)C[C@@H](C)N(C(=O)c1ccc(Cl)c(Cl)c1)C2 [Compound C610] | 0.17 | > 50 |
| CC(C)Nc1nc2c(c(=O)n1-c1ccc(-n3cncn3)cc1)C[C@@H](C)N(C(=O)c1ccc(Cl)c(Cl)c1)C2 [Compound C611] | 0.17 | > 50 |
| CNc1noc2cc(-n3c(N[C@@H](C)c4ccc(C(F)(F)F)cc4)nc4c(c3=O)C[C@@H](C)N(C(=O)c3ccc(Cl)c(Cl)c3)C4)ccc12 [Compound C612, (R)-7-(3,4-dichlorobenzoyl)-6-methyl-3-(3-(methylamino)-benzo[d]isoxazol-6-yl)-2-(((S)-1-(4-(trifluoromethyl)phenyl)ethyl)amino)-5,6,7,8-tetrahydropyrido[3,4-d]pyrimidin-4(3H)-one] | 0.14 | > 50 |
| CNC(=O)c1cnc(-n2c(N[C@@H](C)c3ccc(F)cc3)nc3c(c2=O)C[C@@H](C)N(C(=O)c2ccc(Cl)c(Cl)c2)C3)cn1 [Compound C614] | 0.09 | > 50 |
| CNC(=O)c1cnc(-n2c(N[C@@H](C)c3ccc(C(F)(F)F)cc3)nc3c(c2=O)C[C@@H](C)N(C(=O)c2ccc(Cl)c(Cl)c2)C3)cn1 [Compound C615] | 0.13 | > 50 |
| CNc1noc2cc(-n3c(N[C@@H](C)c4ccc(OC(F)(F)F)cc4)nc4c(c3=O)C[C@@H](C)N(C(=O)c3ccc(Cl)c(Cl)c3)C4)ccc12 [Compound C616] | 0.19 | > 50 |

| SMILES | EC50 [1] [µM] | CC50 at 3 days (in vitro) [µM] |
| --- | --- | --- |
| CNC(=O)c1cc(-n2c(N[C@@H](C)c3ccc(OC(F)(F)F)cc3)nc3c(c2=O)C[C@@H](C)N(C(=O)c2ccc(Cl)c(Cl)c2)C3)n(C)n1 [Compound C618] | 0.09 | > 45 |
| CNC(=O)c1ncc(-n2c(N[C@@H](C)c3ccc(OC(F)(F)F)cc3)nc3c(c2=O)C[C@@H](C)N(C(=O)c2ccc(Cl)c(Cl)c2)C3)n1C [Compound C620] | 0.17 | > 50 |
| CNC(=O)c1ccc(-n2c(N[C@H]3C[C@H]4CC[C@]3(C)C4(C)C)nc3c(c2=O)C[C@@H](C)N(C(=O)c2ccc(Cl)c(Cl)c2)C3)cc1 [Compound C621] | > 2.5 | 5.99 |
| CNC(=O)c1cc(-n2c(N[C@@H](C)c3ccc(OC(F)(F)F)cc3)nc3c(c2=O)C[C@@H](C)N(C(=O)c2ccc(Cl)c(Cl)c2)C3)nn1C [Compound C622] | 0.07 | > 50 |
| CNC(=O)c1cc(-n2c(N[C@@H](C)c3ccc(C(F)(F)F)cc3)nc3c(c2=O)C[C@@H](C)N(C(=O)c2ccc(Cl)c(Cl)c2)C3)nn1C [Compound C623] | 0.04 | > 50 |
| CNC(=O)c1cc(-n2c(N[C@@H](C)c3ccc(F)cc3)nc3c(c2=O)C[C@@H](C)N(C(=O)c2ccc(Cl)c(Cl)c2)C3)nn1C [Compound C624] | 0.06 | > 50 |
| CCN(CC)c1nc2c(c(=O)n1-c1ccc(C(=O)NC)nc1)C[C@@H](C)N(C(=O)c1ccc(Cl)c(Cl)c1)C2 [Compound C625] | 0.18 | > 50 |
| CNC(=O)c1ncc(-n2c(O)nc3c(c2=O)C[C@@H](C)N(C(=O)c2ccc(Cl)c(Cl)c2)C3)n1C [Compound C626, R-5-(7-(3,4-dichlorobenzoyl)-2-hydroxy-6-methyl-4-oxo-5,6,7,8-tetrahydropyrido[3,4-d]pyrimidin-3(4H)-yl)-N,1-dimethyl-1H-imidazole-2-carboxamide] | > 2.5 | > 50 |
| CNc1[nH]nc2cc(-n3c(NC(C)C)nc4c(c3=O)C[C@@H](C)N(C(=O)c3ccc(Cl)c(Cl)c3)C4)ccc12 [Compound C627] | 0.12 | 33.6 |
| CNC(=O)c1ccc(-n2c(N[C@@H](C)c3ccc(C(F)(F)F)cc3)nc3c(c2=O)C[C@@H](C)N(C(=O)c2ccc(Cl)c(C(F)F)c2)C3)cc1 [Compound C628] | 0.05 | 23.2 |
| CNC(=O)c1cc(-n2c(N[C@@H](C)c3ccc(C(F)(F)F)cc3)nc3c(c2=O)C[C@@H](C)N(C(=O)c2ccc(Cl)c(Cl)c2)C3)[nH]n1 [Compound C630] | 0.11 | 20.7 |
| CNC(=O)[C@H]1CC[C@H](n2c(N[C@@H](C)c3ccc(OC(F)(F)F)cc3)nc3c(c2=O)C[C@@H](C)N(C(=O)c2ccc(Cl)c(Cl)c2)C3)CC1 [Compound C632] | 0.12 | 6.2 |
| CNC(=O)c1ccc(-n2c(NC(C)C)nc3c(c2=O)C[C@@H](C)N(C(=O)c2ccc(F)c(C(F)F)c2)C3)cc1 [Compound C634] | 0.63 | > 50 |
| CNC(=O)c1ccc(-n2c(NC(C)C)nc3c(c2=O)C[C@@H](C)N(C(=O)c2ccc(Cl)c(OC(F)(F)F)c2)C3)cc1 [Compound C635] | 0.07 | > 50 |
| CNC(=O)c1noc2cc(-n3c(NC(C)C)nc4c(c3=O)C[C@@H](C)N(C(=O)c3ccc(Cl)c(Cl)c3)C4)ccc12 [Compound C638] | 0.14 | > 50 |
| CNC(=O)[C@H]1CC[C@H](n2c(N[C@@H](C)c3ccc(C(F)(F)F)cc3)nc3c(c2=O)C[C@@H](C)N(C(=O)c2ccc(Cl)c(Cl)c2)C3)CC1 [Compound C640] | 0.07 | 5.2 |
| CNC(=O)c1ccc(-n2c(NC(C)C)nc3c(c2=O)C[C@@H](C)N(C(=O)c2ccc(F)c(C#N)c2)C3)cc1 [Compound C641] | 1.99 | > 50 |
| CNC(=O)c1ccc(-n2c(NC(C)C)nc3c(c2=O)C[C@@H](C)N(C(=O)c2ccc(Cl)c(C(F)(F)F)c2)C3)cc1Cl [Compound C642] | 0.04 | > 50 |
| CNC(=O)c1ccc(-n2c(NC(C)C)nc3c(c2=O)C[C@@H](C)N(C(=O)c2ccc(Cl)c(C(F)(F)F)c2)C3)c(OC)c1 [Compound C643] | 0.05 | > 50 |
| CNC(=O)[C@H]1CC[C@@H](n2c(N[C@@H](C)c3ccc(C(F)(F)F)cc3)nc3c(c2=O)C[C@@H](C)N(C(=O)c2ccc(Cl)c(Cl)c2)C3)CC1 [Compound C644] | 0.23 | 7.5 |
| CNC(=O)c1cc(-n2c(NC(C)C)nc3c(c2=O)C[C@@H](C)N(C(=O)c2ccc(Cl)c(C(F)(F)F)c2)C3)n(C)n1 [Compound C645] | 0.04 | > 50 |
| CNC(=O)c1cc(-n2c(NC(C)C)nc3c(c2=O)C[C@@H](C)N(C(=O)c2cccc(C(F)(F)F)c2)C3)n(C)n1 [Compound C646] | 1.62 | > 50 |
